The results in this text go back to US20230416227A1, “PLASMA KALLIKREIN INHIBITORS” (Merck Sharp & Dohme LLC, priority 2020, published 2023).

The target of assay [1] is human factor XIa (Homo sapiens, UniProt P03951). The experiment in a line: Factor XIa Assay. The class given is biochemical. The settings on record: human factor XIa 0.04 nM, substrate GPR-AFC, 30 min pre-incubation at 25° C., pH 7.4; read-out: FXIa IC50. How it is done:
The effectiveness of a compound of the present invention as an inhibitor of Coagulation factor XIa can be determined using a relevant purified serine protease, and an appropriate synthetic substrate. The rate of hydrolysis of the chromogenic or fluorogenic substrate by the relevant serine protease was measured both in the absence and presence of compounds of the present invention. Assays were conducted at rt or at 37° C. […] A decrease in the rate of fluorescence change in the presence of inhibitor is indicative of enzyme inhibition. Such methods are known to one skilled in the art. The results of this assay are expressed as the half-maximal inhibitory concentrations (IC50), or the inhibitory constant, Ki.
Compounds were pre-incubated for 30 min at 25° C. with human (0.04 nM) factor XIa in 50 mM HEPES buffer with 150 mM sodium chloride, 5 mM calcium chloride, 0.1% PEG 8000, pH 7.4. factor XIa enzymatic activity was determined by addition of the substrate glycine-proline-arginine-7-amido-4-trifluoromethylcoumarin (GPR-AFC) and measurement of the fluorescence at 400/505 nm after a 60 min incubation at 25° C. The % inhibition for each data point was calculated from the data and analyzed using the log (inhibitor) vs. response four parameters equation to determine the half-maximal inhibitory concentrations (IC50). The IC50 were converted to equilibrium inhibitory constants (Ki) using the Cheng-Prusoff equation.

Assay [2] concerns the target T1, Human plasma kallikrein (Homo sapiens, UniProt P03952).
T1 construct: yields a heavy chain (371 amino acids) and a light chain (248 amino acids); purchased Enzyme Research Laboratories
The experiment in a line: Plasma Kallikrein Assay. The settings on record: purified Human plasma kallikrein 0.5 nM, substrate Acetyl-K-P-R-AFC, pH 7.4. The class given is biochemical.

Chain of human factor XIa (P03951 388-625 limits assumed): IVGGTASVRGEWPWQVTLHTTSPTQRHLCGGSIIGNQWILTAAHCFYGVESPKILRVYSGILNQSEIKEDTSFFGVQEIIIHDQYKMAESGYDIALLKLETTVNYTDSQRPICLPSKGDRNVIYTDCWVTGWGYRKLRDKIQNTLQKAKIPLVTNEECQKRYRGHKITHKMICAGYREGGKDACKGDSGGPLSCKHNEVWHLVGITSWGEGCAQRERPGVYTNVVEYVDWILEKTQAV
Chain of human factor XIa (P03951 19-387 partner limits assumed): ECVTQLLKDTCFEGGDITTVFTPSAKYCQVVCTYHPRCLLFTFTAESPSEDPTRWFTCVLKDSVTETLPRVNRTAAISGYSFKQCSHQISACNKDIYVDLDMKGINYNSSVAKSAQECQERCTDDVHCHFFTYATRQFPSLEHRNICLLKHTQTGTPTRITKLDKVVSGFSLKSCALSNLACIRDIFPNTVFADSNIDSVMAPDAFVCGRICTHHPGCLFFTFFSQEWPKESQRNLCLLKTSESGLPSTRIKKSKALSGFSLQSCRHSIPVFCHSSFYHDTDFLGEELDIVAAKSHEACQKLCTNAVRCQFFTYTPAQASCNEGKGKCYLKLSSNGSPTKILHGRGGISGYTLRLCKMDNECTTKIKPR
T1 sequence (P03952 391-638 limits assumed): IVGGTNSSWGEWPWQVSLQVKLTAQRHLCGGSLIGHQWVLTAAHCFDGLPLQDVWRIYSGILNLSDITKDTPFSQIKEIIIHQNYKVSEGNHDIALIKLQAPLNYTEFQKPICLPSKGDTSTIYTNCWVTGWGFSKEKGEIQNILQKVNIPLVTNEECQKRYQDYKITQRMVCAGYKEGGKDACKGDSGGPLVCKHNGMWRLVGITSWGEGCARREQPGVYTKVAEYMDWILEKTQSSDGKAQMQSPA
T1 sequence (P03952 20-390 partner limits assumed): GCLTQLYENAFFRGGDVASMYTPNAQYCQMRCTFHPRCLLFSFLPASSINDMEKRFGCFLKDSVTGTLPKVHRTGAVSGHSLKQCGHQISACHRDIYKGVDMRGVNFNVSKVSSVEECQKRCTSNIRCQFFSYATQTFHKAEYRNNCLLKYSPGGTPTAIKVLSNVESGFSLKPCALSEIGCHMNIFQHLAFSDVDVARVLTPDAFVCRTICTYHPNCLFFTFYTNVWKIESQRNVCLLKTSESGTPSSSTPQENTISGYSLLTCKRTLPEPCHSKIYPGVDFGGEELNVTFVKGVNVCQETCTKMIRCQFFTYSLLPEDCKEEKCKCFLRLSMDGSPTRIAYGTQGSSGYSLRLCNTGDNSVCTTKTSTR

Consider `O=C(Nc1cnn(C(CO)c2cnc(N3CC4CC4C3)nc2)c1)c1cncc(-c2c(C(F)F)ccc(Cl)c2F)n1` (single isomer, unassigned) [Example 45, N-(1-((R or S)-1-(2-(3-Azabicyclo[3.1.0]hexan-3-yl)pyrimidin-5-yl)-2-hydroxyethyl)-1H-pyrazol-4-yl)-6-(3-chloro-6-(difluoromethyl)-2-fluorophenyl)pyrazine-2-carboxamide], for which the IC50 (commonly the point on the concentration scale where inhibition reaches its midpoint) turned out to be 992 nM in assay [1] and 23.2 nM in assay [2].

On to `Cc1ncc(-c2c(C(F)F)ccc(Cl)c2F)nc1C(=O)Nc1cnn(C(CO)c2cnc(N3CCC3)nc2)c1` (single isomer, unassigned) [Example 46, (S or R)-N-(1-(1-(2-(Azetidin-1-yl)pyrimidin-5-yl)-2-hydroxyethyl)-1H-pyrazol-4-yl)-6-(3-chloro-6-(difluoromethyl)-2-fluorophenyl)-3-methylpyrazine-2-carboxamide], for which the IC50 in assay [1] turned out to be 595 nM; in assay [2], 3.7 nM.

As to `Cc1ncc(-c2c(C(F)F)ccc(Cl)c2F)nc1C(=O)Nc1cnn(C(CO)c2cnc(N3CCC3)nc2)c1` (single isomer, unassigned) [Example 47, (R or S)-N-(1-(1-(2-(Azetidin-1-yl)pyrimidin-5-yl)-2-hydroxyethyl)-1H-pyrazol-4-yl)-6-(3-chloro-6-(difluoromethyl)-2-fluorophenyl)-3-methylpyrazine-2-carboxamide], the figures for the half-inhibitory concentration (IC50) in assay [1] and in assay [2] were 326 nM and 10.6 nM, respectively.

As for `C[C@H](c1cnc(N2CCC2)nc1)n1cc(NC(=O)c2cncc(-c3c(C(F)(F)F)ccc(Cl)c3F)n2)cn1` (single isomer, unassigned) [Example 54], the IC50 in assay [1] amounted to 3030 nM; in assay [2], 25.7 nM.

Consider `C[C@@H](c1cnc(N2CCC2)nc1)n1cc(NC(=O)c2cncc(-c3c(C(F)(F)F)ccc(Cl)c3F)n2)cn1` (single isomer, unassigned) [Example 55], for which the IC50 in assay [1] stood at 3940 nM; in assay [2] it was 24.4 nM.

Regarding `CC(c1cnc(N2CCC2)nc1)n1cc(NC(=O)c2cncc(-c3c(OC(F)F)ccc(Cl)c3F)n2)cn1` (single isomer, unassigned) [Example 56, (R or S)-N-(1-(1-(2-(Azetidin-1-yl)pyrimidin-5-yl)ethyl)-1H-pyrazol-4-yl)-6-(3-chloro-6-(difluoromethoxy)-2-fluorophenyl)pyrazine-2-carboxamide], the IC50 turned out to be 1490 nM in assay [1] and 27.7 nM in assay [2].

In the case of `CC(c1cnc(N2CCC2)nc1)n1cc(NC(=O)c2cncc(-c3c(OC(F)F)ccc(Cl)c3F)n2)cn1` (single isomer, unassigned) [Example 57, (S or R)-N-(1-(1-(2-(Azetidin-1-yl)pyrimidin-5-yl)ethyl)-1H-pyrazol-4-yl)-6-(3-chloro-6-(difluoromethoxy)-2-fluorophenyl)pyrazine-2-carboxamide], the IC50 in assay [1] came to 1170 nM; in assay [2], 6.8 nM.

On to `CC(c1cnc(N2CCC2)nc1)n1cc(NC(=O)c2cncc(-c3cc(Cl)ccc3-n3cnnn3)n2)cn1` (single isomer, unassigned) [Example 58, (S or R)-N-(1-(1-(2-(Azetidin-1-yl)pyrimidin-5-yl)ethyl)-1H-pyrazol-4-yl)-6-(5-chloro-2-(1H-tetrazol-1-yl)phenyl)pyrazine-2-carboxamide], for which the IC50 in assay [1] turned out to be 413 nM; in assay [2] it was 8.1 nM.

As to `CC(c1cnc(N2CCC2)nc1)n1cc(NC(=O)c2cncc(-c3cc(Cl)ccc3-n3cnnn3)n2)cn1` (single isomer, unassigned) [Example 59, (R or S)-N-(1-(1-(2-(Azetidin-1-yl)pyrimidin-5-yl)ethyl)-1H-pyrazol-4-yl)-6-(5-chloro-2-(1H-tetrazol-1-yl)phenyl)pyrazine-2-carboxamide], the concentration for half-maximal inhibition (IC50) came to 372 nM in assay [1] and 1.8 nM in assay [2].

As to `COc1ccc(-n2cnnn2)c(-c2cncc(C(=O)Nc3cnn(C(C)c4cnc(N5CCC5)nc4)c3)n2)c1` (single isomer, unassigned) [Example 60, (S or R)-N-(1-(1-(2-(Azetidin-1-yl)pyrimidin-5-yl)ethyl)-1H-pyrazol-4-yl)-6-(5-methoxy-2-(1H-tetrazol-1-yl)phenyl)pyrazine-2-carboxamide], the IC50 in assay [1] was 730 nM; in assay [2], 47 nM.

Regarding `COc1ccc(-n2cnnn2)c(-c2cncc(C(=O)Nc3cnn(C(C)c4cnc(N5CCC5)nc4)c3)n2)c1` (single isomer, unassigned) [Example 61, (R or S)-N-(1-(1-(2-(Azetidin-1-yl)pyrimidin-5-yl)ethyl)-1H-pyrazol-4-yl)-6-(5-methoxy-2-(1H-tetrazol-1-yl)phenyl)pyrazine-2-carboxamide], the IC50 was 662 nM in assay [1] and 14 nM in assay [2].

Turning to `Cc1cc(N2CCC2)ncc1[C@H](C)n1cc(NC(=O)c2cncc(-c3c(C(F)F)ccc(Cl)c3F)n2)cn1` (single isomer, unassigned) [Example 66], the IC50 is 639 nM in assay [1] and 3.9 nM in assay [2].

For `Cc1nc(N2CCC2)ncc1[C@H](C)n1cc(NC(=O)c2cncc(-c3c(C(F)F)ccc(Cl)c3F)n2)cn1` (single isomer, unassigned) [Example 69], the values for the IC50 in assay [1] and in assay [2] were 8070 nM and 64.3 nM, respectively.

For `Cc1nc(N2CCC2)ncc1[C@@H](C)n1cc(NC(=O)c2cncc(-c3c(C(F)F)ccc(Cl)c3F)n2)cn1` (single isomer, unassigned) [Example 70], the IC50 in assay [1] was found to be 485 nM; in assay [2], 1.4 nM.

`C[C@@H](c1cnc(N2C[C@@H]3C[C@@H]3[C@@H]2CO)nc1)n1cc(NC(=O)c2cncc(-c3c(C(F)F)ccc(Cl)c3F)n2)cn1` (single isomer, unassigned) [Example 71, 6-(3-Chloro-6-(difluoromethyl)-2-fluorophenyl)-N-(1-((S or R)-1-(2-((1S,2R,5R or 1R,2S,5S)-2-(hydroxymethyl)-3-azabicyclo[3.1.0]hexan-3-yl)pyrimidin-5-yl)ethyl)-1H-pyrazol-4-yl)pyrazine-2-carboxamide]: the IC50 in assay [1] was 2260 nM; in assay [2], 2.5 nM.

With `C[C@@H](c1cnc(N2C[C@@H]3C[C@@H]3[C@@H]2CO)nc1)n1cc(NC(=O)c2cncc(-c3c(C(F)F)ccc(Cl)c3F)n2)cn1` (single isomer, unassigned) [Example 74, 6-(3-Chloro-6-(difluoromethyl)-2-fluorophenyl)-N-(1-((S or R)-1-(2-((1S,2R,5R or 1R,2S,5S)-2-(hydroxymethyl)-3-azabicyclo[3.1.0]hexan-3-yl)pyrimidin-5-yl)ethyl)-1H-pyrazol-4-yl)pyrazine-2-carboxamide], the half-maximal inhibitory concentration (IC50) stood at 1020 nM in assay [1] and 4.3 nM in assay [2].

Turning to `C[C@@H](c1cnc(N2C[C@@H]3C[C@@H]3[C@@H]2CO)nc1)n1cc(NC(=O)c2cncc(-c3c(C(F)F)ccc(Cl)c3F)n2)cn1` (single isomer, unassigned) [Example 76, 6-(3-Chloro-6-(difluoromethyl)-2-fluorophenyl)-N-(1-((S or R)-1-(2-((1S,2R,5R or 1R,2S,5S)-2-(hydroxymethyl)-3-azabicyclo[3.1.0]hexan-3-yl)pyrimidin-5-yl)ethyl)-1H-pyrazol-4-yl)pyrazine-2-carboxamide], the IC50 stood at 4640 nM in assay [1] and 5.4 nM in assay [2].

Consider `O=C(Nc1cnn(Cc2cnc(N3CC4CC4C3CO)nc2)c1)c1cncc(-c2c(C(F)F)ccc(Cl)c2F)n1` (single isomer, unassigned) [Example 77, 6-(3-Chloro-6-(difluoromethyl)-2-fluorophenyl)-N-(1-((2-((1R,2S,5S or 1S,2R,5R)-2-(hydroxymethyl)-3-azabicyclo[3.1.0]hexan-3-yl)pyrimidin-5-yl)methyl)-1H-pyrazol-4-yl)pyrazine-2-carboxamide], for which the IC50 amounted to 2950 nM in assay [1] and 5.6 nM in assay [2].

Regarding `O=C(Nc1cnn(Cc2cnc(N3CC4CC4C3CO)nc2)c1)c1cncc(-c2c(C(F)F)ccc(Cl)c2F)n1` (single isomer, unassigned) [Example 79, 6-(3-Chloro-6-(difluoromethyl)-2-fluorophenyl)-N-(1-((2-((1R,2S,5S or 1S,2R,5R)-2-(hydroxymethyl)-3-azabicyclo[3.1.0]hexan-3-yl)pyrimidin-5-yl)methyl)-1H-pyrazol-4-yl)pyrazine-2-carboxamide], the figures for the IC50 in assay [1] and in assay [2] were 2860 nM and 5.9 nM, respectively.

As to `CC(c1cnc(N2CC3(CC3)C2)nc1)n1cc(NC(=O)c2cncc(-c3c(C(F)F)ccc(Cl)c3F)n2)cn1` (single isomer, unassigned) [Example 93, (R or S)-N-(1-(1-(2-(5-Azaspiro[2.3]hexan-5-yl)pyrimidin-5-yl)ethyl)-1H-pyrazol-4-yl)-6-(3-chloro-6-(difluoromethyl)-2-fluorophenyl)pyrazine-2-carboxamide], the half-maximal inhibitory concentration (IC50) was determined as 4310 nM in assay [1] and 19.9 nM in assay [2].
